Laboratory results taken from patent US20040176323A1, “Pharmaceutical composition comprising lysophophatidic acid” (priority 2001, published 2004).

Experiments:
[1] = test system: ICR mice with sepsis induced by cecal ligation and puncture; experiment: Cecal ligation and puncture (CLP) model test, survival in sepsis; assay type: in vivo; settings: 5 ICR mice; for 48-hour survival rate (%) (Mice survived/All mice): control 0% (0/5); for 24-hour survival rate (%) (Mice survived/All mice): control 20% (1/5)
Description: Cecal Ligation and Puncture (CLP) Model Test
To verify excellent preventive and therapeutic effects of LPA as an effective ingredient of the pharmaceutical composition according to the present invention on sepsis, this test using CLP model animals in which sepsis was caused by inducing peritonitis by cecal ligation and puncture was undertaken.
After anesthetizing 15 ICR mice (weighing about 25 to 30 g; availably from MJ Ltd.) with pentobarbital, a right region of their abdomen was excised in 1 cm length to expose cecum, followed by ligating the lower area of ileocecal valve, making six punctures on the cecum with a 21 gauge needle and then suturing the abdomen, thereby inducing sepsis with the model mice.
At 2 and 4 hours after suturing, LPA(oleoyl-sn-glycerol-3-phosphate; Sigma Co.) dissolved in 10% DMSO solution was intraperitoneally administered to 5 ICR mice at a dose of about 10 mg/kg (Group A) and to another 5 ICR mice at a dose of about 50 mg/kg (Group B), and only a 10% DMSO solution was intraperitoneally administered to the other 5 ICR mice (Control group). The survival rates of ICR mice in groups A and B and control group were investigated in course of time.

[2] = test system: Sprague-Dawley rats with permanent focal cerebral ischemia by occlusion of middle cerebral artery; experiment: Rat model with permanent focal cerebral ischemia by occlusion of middle cerebral artery, infarct area and volume; assay type: in vivo; settings: 20 mg/kg subcutaneously at 1 hour before and 2 and 6 hours after surgery
Description: To verify excellent preventive and therapeutic effects of LPA as an effective component of the pharmaceutical composition according to the present invention on stroke, the test using rat models induced with permanent focal cerebral ischemia by occlusion of middle cerebral artery, designed as follows, was undertaken.
Rat Model Induced with Permanent Focal Cerebral Ischemia by Occulusion of Middle Cerebral Artery
12 male Sprague-Dawley rats weighing about 250 to 269 g, were anaesthetized through inhalation of a mixed solution of 70% […] and 30% oxygen gas, the solution containing 2% isoflurane (Choongwae Pharma Corp., Korea), and then subjected to a slightly modified Nagasawa and Kogure's method (Nagasawa H and Kogure K (1989) Correlation between cerebral blood flow and histologic changes in a new rat model of middle cerebral artery occlusion. Stroke 20: 1037-1043), leading to occlusion of their right middle cerebral artery. Specifically, rats were anaesthetized, and then their cervix was incised along by the middle line of their neck. Then, after separately ligating their right common carotid artery and their external carotid artery carefully so as not to cause damage to their vagus nerve, the junction of their internal carotid artery were slightly cut and then a 17 mm long silicon rubber cylinder was carefully inserted thereinto, followed by ligating the internal carotid artery on the inserted cylinder. […]
At 24 hours after surgery, the rats of the test group and the control group were decapitated, and their brains were rapidly extracted, followed by washing with a cold saline solution. […] After the brain sections stained with TTC were fixed with 10% phosphate-buffered formalin, the area of cerebral infarcts on the posterior side of each section, which was visualized as an area of unstained tissue, was determined separately for cortex and striatum, by using an image analyzer.
In order to correct a change in the area of cerebral infarcts due to cerebral edema, the area of cerebral infarcts on each section was determined by subtracting the […] area in the right hemisphere with occluded middle cerebral artery from the area of the left hemisphere with unoccluded middle cerebral artery. Total areas of cerebral infarcts, obtained by summing the areas of infarcts in cortex and striatum that were measured at each brain section, were averaged, and the results were shown in FIG. 1. […]

[3] = Group A: about 10 mg/kg intraperitoneally at 2 and 4 hours after suturing
[4] = Group B: about 50 mg/kg intraperitoneally at 2 and 4 hours after suturing
[5] = 24 hours after surgery, mean±standard deviation, 4 test rats, p<0.001

oleoyl-sn-glycerol-3-phosphate [LPA]
48-hour survival rate (%) (Mice survived/All mice) [1, 3]: 40% (2/5) | 24-hour survival rate (%) (Mice survived/All mice) [1, 3]: 60% (3/5) | 48-hour survival rate (%) (Mice survived/All mice) [1, 4]: 40% (2/5) | 24-hour survival rate (%) (Mice survived/All mice) [1, 4]: 60% (3/5) | reduction of the infarcted volume in cortex compared with control group rats [2, 5]: 44.6±3.6% | reduction of the infarcted volume in striatum compared with control group rats [2, 5]: 55.3±21.0% | reduction of total infarcted volume compared with control group rats [2, 5]: 47.8±7.1% | total area of infarcts (cortex and striatum) compared to control group rats ([2]; measured 24 hours after surgery, FIG. 1): noticeable reduction in total area of infarcts
